From ChEMBL document CHEMBL1201862, “PubChem BioAssay data set” (2004)
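Protocol summary: plate cells (96-well), add compound at 5 concentrations, incubate 48 h, interpolate endpoints linearly. GI50 marks 50% less growth.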 The source made the active and inactive calls. No stated cut-off is given here; in the data, active = GI50 up to about 1.1 µM and inactive = higher.

Columns and labels:
Assay in all cases: NCI-60 cell line screen, 48 h
KM12 = system: KM12
OVCAR-3 = system: OVCAR-3
UACC-62 = system: UACC-62
DU-145 = system: DU-145
MOLT-4 = system: MOLT-4
MCF7 = system: MCF7
OVCAR-5 = system: OVCAR-5
RXF 393 = system: RXF 393
HOP-92 = system: HOP-92
SN12C = system: SN12C
PC-3 = system: PC-3
NCI-H460 = system: NCI-H460
SK-MEL-28 = system: SK-MEL-28
SNB-19 = system: SNB-19
HCT-15 = system: HCT-15
MDA-MB-231 = system: MDA-MB-231
SNB-75 = system: SNB-75
CCRF-CEM = system: CCRF-CEM

COC(=O)C1C2C=CC(C2)N1S(=O)(=O)c1ccccc1 (stereo not given)
GI50 (KM12): > 100 µM (inactive) | GI50 (OVCAR-3): > 100 µM (inactive) | GI50 (UACC-62): > 100 µM (inactive) | GI50 (DU-145): > 100 µM (inactive) | GI50 (MOLT-4): > 100 µM (inactive) | GI50 (MCF7): > 100 µM (inactive) | GI50 (OVCAR-5): > 100 µM (inactive) | GI50 (RXF 393): > 100 µM (inactive) | GI50 (HOP-92): 33 µM (inactive) | GI50 (SN12C): > 100 µM (inactive) | GI50 (PC-3): > 100 µM (inactive) | GI50 (NCI-H460): > 100 µM (inactive) | GI50 (SK-MEL-28): > 100 µM (inactive) | GI50 (SNB-19): > 100 µM (inactive) | GI50 (HCT-15): > 100 µM | GI50 (MDA-MB-231): > 100 µM (inactive)

O=C(O)CCC(C(=O)O)N1C(=O)C2C3CCC(C3)C2C1=O (stereo not given)
GI50 (KM12): > 100 µM (inactive) | GI50 (OVCAR-3): > 100 µM (inactive) | GI50 (UACC-62): > 100 µM (inactive) | GI50 (DU-145): > 100 µM (inactive) | GI50 (MOLT-4): > 100 µM (inactive) | GI50 (MCF7): > 100 µM (inactive) | GI50 (OVCAR-5): > 100 µM (inactive) | GI50 (RXF 393): > 100 µM (inactive) | GI50 (HOP-92): > 100 µM (inactive) | GI50 (SN12C): > 100 µM (inactive) | GI50 (PC-3): > 100 µM (inactive) | GI50 (NCI-H460): > 100 µM (inactive) | GI50 (SK-MEL-28): > 100 µM (inactive) | GI50 (SNB-19): > 100 µM (inactive) | GI50 (SNB-75): > 100 µM (inactive) | GI50 (HCT-15): > 100 µM | GI50 (MDA-MB-231): > 100 µM (inactive)

O=C(/C=C1\Nc2ccccc2N=C1NC12CC3CC(CC(C3)C1)C2)c1ccc(Br)cc1
GI50 (KM12): > 10 µM (inactive) | GI50 (OVCAR-3): > 10 µM (inactive) | GI50 (UACC-62): > 10 µM (inactive) | GI50 (DU-145): > 10 µM (inactive) | GI50 (MOLT-4): > 10 µM (inactive) | GI50 (MCF7): > 10 µM (inactive) | GI50 (OVCAR-5): > 10 µM (inactive) | GI50 (RXF 393): > 10 µM (inactive) | GI50 (CCRF-CEM): > 10 µM (inactive) | GI50 (SN12C): > 10 µM (inactive) | GI50 (PC-3): > 10 µM (inactive) | GI50 (NCI-H460): > 10 µM (inactive) | GI50 (SK-MEL-28): > 10 µM (inactive) | GI50 (SNB-19): > 10 µM (inactive) | GI50 (SNB-75): > 10 µM (inactive) | GI50 (HCT-15): > 10 µM | GI50 (MDA-MB-231): > 10 µM (inactive)

COc1ccc(Cn2c(=O)c(OS(=O)(=O)C(F)(F)F)c(C)c3cc4ccccc4cc32)cc1
GI50 (KM12): > 100 µM (inactive) | GI50 (OVCAR-3): > 100 µM (inactive) | GI50 (UACC-62): > 100 µM (inactive) | GI50 (DU-145): > 100 µM (inactive) | GI50 (MOLT-4): > 100 µM (inactive) | GI50 (MCF7): > 100 µM (inactive) | GI50 (OVCAR-5): > 100 µM (inactive) | GI50 (RXF 393): > 100 µM (inactive) | GI50 (CCRF-CEM): > 100 µM (inactive) | GI50 (SN12C): > 100 µM (inactive) | GI50 (PC-3): > 100 µM (inactive) | GI50 (NCI-H460): > 100 µM (inactive) | GI50 (SK-MEL-28): > 100 µM (inactive) | GI50 (SNB-19): > 100 µM (inactive) | GI50 (SNB-75): > 100 µM (inactive) | GI50 (HCT-15): > 100 µM | GI50 (MDA-MB-231): > 100 µM (inactive)

CC12CP(=O)(c3ccccc3)CC1c1ccccc1C2c1ccccc1 (stereo not given)
GI50 (KM12): 17.3 µM (inactive) | GI50 (OVCAR-3): 16.7 µM (inactive) | GI50 (UACC-62): 29.2 µM (inactive) | GI50 (DU-145): 21 µM (inactive) | GI50 (MOLT-4): 11.4 µM (inactive) | GI50 (MCF7): > 100 µM (inactive) | GI50 (OVCAR-5): 30.9 µM (inactive) | GI50 (RXF 393): 20.8 µM (inactive) | GI50 (HOP-92): 22.1 µM (inactive) | GI50 (CCRF-CEM): 3.04 µM (inactive) | GI50 (SN12C): 17.9 µM (inactive) | GI50 (PC-3): 12.4 µM (inactive) | GI50 (NCI-H460): 14.5 µM (inactive) | GI50 (SK-MEL-28): 29.4 µM (inactive) | GI50 (SNB-19): 48 µM (inactive) | GI50 (HCT-15): 13.7 µM | GI50 (MDA-MB-231): 18.5 µM (inactive)

NC1CC(=O)c2cc(Br)sc21 (stereo not given)
GI50 (KM12): > 100 µM (inactive) | GI50 (OVCAR-3): > 100 µM (inactive) | GI50 (UACC-62): > 100 µM (inactive) | GI50 (DU-145): > 100 µM (inactive) | GI50 (MOLT-4): > 100 µM (inactive) | GI50 (MCF7): > 100 µM (inactive) | GI50 (OVCAR-5): > 100 µM (inactive) | GI50 (RXF 393): > 100 µM (inactive) | GI50 (CCRF-CEM): > 100 µM (inactive) | GI50 (SN12C): > 100 µM (inactive) | GI50 (PC-3): > 100 µM (inactive) | GI50 (NCI-H460): > 100 µM (inactive) | GI50 (SK-MEL-28): > 100 µM (inactive) | GI50 (SNB-19): > 100 µM (inactive) | GI50 (SNB-75): > 100 µM (inactive) | GI50 (HCT-15): > 100 µM | GI50 (MDA-MB-231): > 100 µM (inactive)

COc1ccc(C2=Nn3c(C)nnc3S/C2=C\c2ccc(-c3ccc([N+](=O)[O-])cc3)o2)cc1
GI50 (KM12): 16.1 µM (inactive) | GI50 (OVCAR-3): 10.9 µM (inactive) | GI50 (UACC-62): 12.1 µM (inactive) | GI50 (DU-145): 12.2 µM (inactive) | GI50 (MOLT-4): 3.56 µM (inactive) | GI50 (MCF7): 3.18 µM (inactive) | GI50 (OVCAR-5): 18.4 µM (inactive) | GI50 (RXF 393): 9.31 µM (inactive) | GI50 (HOP-92): 22.5 µM (inactive) | GI50 (CCRF-CEM): 3.92 µM (inactive) | GI50 (SN12C): 11 µM (inactive) | GI50 (PC-3): 9.84 µM (inactive) | GI50 (NCI-H460): 14.9 µM (inactive) | GI50 (SNB-19): 15.6 µM (inactive) | GI50 (HCT-15): 10.9 µM | GI50 (MDA-MB-231): 19.9 µM (inactive)

CSc1ncnc2c1cnn2CCCCO
GI50 (KM12): > 100 µM (inactive) | GI50 (OVCAR-3): > 100 µM (inactive) | GI50 (UACC-62): > 100 µM (inactive) | GI50 (DU-145): > 100 µM (inactive) | GI50 (MOLT-4): > 100 µM (inactive) | GI50 (MCF7): > 100 µM (inactive) | GI50 (OVCAR-5): > 100 µM (inactive) | GI50 (RXF 393): > 100 µM (inactive) | GI50 (HOP-92): > 100 µM (inactive) | GI50 (CCRF-CEM): > 100 µM (inactive) | GI50 (SN12C): > 100 µM (inactive) | GI50 (PC-3): > 100 µM (inactive) | GI50 (NCI-H460): > 100 µM (inactive) | GI50 (SK-MEL-28): > 100 µM (inactive) | GI50 (SNB-19): > 100 µM (inactive) | GI50 (HCT-15): > 100 µM | GI50 (MDA-MB-231): > 100 µM (inactive)

CC(C)=CCN1CC(C)C(=O)Nc2ccccc21 (stereo not given)
GI50 (KM12): > 100 µM (inactive) | GI50 (OVCAR-3): > 100 µM (inactive) | GI50 (DU-145): > 100 µM (inactive) | GI50 (MOLT-4): > 100 µM (inactive) | GI50 (MCF7): 61.4 µM (inactive) | GI50 (OVCAR-5): > 100 µM (inactive) | GI50 (RXF 393): > 100 µM (inactive) | GI50 (HOP-92): 49 µM (inactive) | GI50 (CCRF-CEM): > 100 µM (inactive) | GI50 (SN12C): > 100 µM (inactive) | GI50 (PC-3): > 100 µM (inactive) | GI50 (NCI-H460): 93.3 µM (inactive) | GI50 (SK-MEL-28): > 100 µM (inactive) | GI50 (SNB-19): > 100 µM (inactive) | GI50 (HCT-15): > 100 µM | GI50 (MDA-MB-231): > 100 µM (inactive)

CC(C)COC(c1ccc2c(c1)OCO2)C(C)Br (stereo not given)
GI50 (KM12): 22.9 µM (inactive) | GI50 (OVCAR-3): 16.2 µM (inactive) | GI50 (UACC-62): 31.7 µM (inactive) | GI50 (DU-145): 33.1 µM (inactive) | GI50 (MCF7): 31.4 µM (inactive) | GI50 (OVCAR-5): 19.7 µM (inactive) | GI50 (RXF 393): 10.5 µM (inactive) | GI50 (HOP-92): 21.7 µM (inactive) | GI50 (SN12C): 20.7 µM (inactive) | GI50 (PC-3): 30.9 µM (inactive) | GI50 (NCI-H460): 20 µM (inactive) | GI50 (SK-MEL-28): 48.6 µM (inactive) | GI50 (SNB-19): 33.7 µM (inactive) | GI50 (SNB-75): 23.1 µM (inactive) | GI50 (HCT-15): 23.3 µM | GI50 (MDA-MB-231): 35.9 µM (inactive)

CN(C)c1ccc(C(=C2C=CC(=[N+](C)C)C=C2)c2c(O)c(S(=O)(=O)[O-])cc3cc(S(=O)(=O)O)ccc23)cc1
GI50 (KM12): > 100 µM (inactive) | GI50 (OVCAR-3): > 100 µM (inactive) | GI50 (UACC-62): > 100 µM (inactive) | GI50 (DU-145): > 100 µM (inactive) | GI50 (MOLT-4): > 100 µM (inactive) | GI50 (MCF7): > 100 µM (inactive) | GI50 (OVCAR-5): > 100 µM (inactive) | GI50 (RXF 393): > 100 µM (inactive) | GI50 (HOP-92): > 100 µM (inactive) | GI50 (SN12C): > 100 µM (inactive) | GI50 (PC-3): > 100 µM (inactive) | GI50 (NCI-H460): > 100 µM (inactive) | GI50 (SK-MEL-28): > 100 µM (inactive) | GI50 (SNB-19): > 100 µM (inactive) | GI50 (SNB-75): > 100 µM (inactive) | GI50 (HCT-15): > 100 µM | GI50 (MDA-MB-231): > 100 µM (inactive)

O=C1/C(=N\NC(=S)Nc2ccc(Cl)cc2)c2cc([N+](=O)[O-])ccc2N1CN1CCOCC1
GI50 (KM12): 11.7 µM (inactive) | GI50 (OVCAR-3): 3.99 µM (inactive) | GI50 (UACC-62): 5.31 µM (inactive) | GI50 (DU-145): 10.5 µM (inactive) | GI50 (MOLT-4): 0.655 µM (active) | GI50 (MCF7): 5.24 µM (inactive) | GI50 (RXF 393): 7.19 µM (inactive) | GI50 (HOP-92): 8.47 µM (inactive) | GI50 (CCRF-CEM): 2.85 µM (inactive) | GI50 (SN12C): 4.12 µM (inactive) | GI50 (PC-3): 10.2 µM (inactive) | GI50 (NCI-H460): 7.78 µM (inactive) | GI50 (SK-MEL-28): 10.9 µM (inactive) | GI50 (SNB-19): 7.89 µM (inactive) | GI50 (SNB-75): 12.8 µM (inactive) | GI50 (HCT-15): 3.36 µM | GI50 (MDA-MB-231): 15 µM (inactive)
